Broadly, the AC50 is the concentration giving half of the maximal activity seen.

Test [1] concerns E. coli mixed culture (wild-type GFP + h34 RFP) total growth, OD600, 24 h. As to the kind of experiment: wild-type E. coli growth inhibition versus h34 humanized strain – h34 mutant RFP, wild-type GFP, cherry-pick, dose response (AID 977624).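 Also: wild-type GFP strain co-cultured with humanized h34 ribosome RFP strain in same well.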 The settings on record: E. coli mixed culture (wild-type GFP + h34 RFP), 24 h; measured here: total OD600 growth.
Test [2] concerns E. coli wild-type GFP strain growth, fluorescence, 24 h. Described as above.

Records with an inconclusive call do not appear. Activity calls are given as the source filed them.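 The calls were made as follows: active = compound lowering the normal-ribosome reporter at least twice as much as the humanized-ribosome reporter, growth loss under a set limit; inconclusive = no clear call, values can overlap the other calls; inactive = the rest.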

In the case of `O=C(CSc1ccccc1)Nc1cccc(NC(=O)c2ccco2)c1`, the half-maximal activity concentration (AC50) in test [1] is > 100 µM; in test [2], > 100 µM (inactive).
Take `O=C(Nc1ccc(F)cc1)N1CCCCN2[C@@H](CO)[C@H](c3ccc(-c4ccncc4)cc3)[C@@H]2C1`: the concentration at half-maximal activity (AC50) in test [1] was > 100 µM; in test [2], > 100 µM (inactive).
As for `COc1ccccc1-c1nnc(C2CCN(S(=O)(=O)c3ccccc3[N+](=O)[O-])CC2)o1`, the half-maximal activity concentration (AC50) in test [1] is > 100 µM; in test [2] it was > 100 µM (inactive).
The matching figures for `c1ccc(CN2CCN(C3CCCSc4ccccc43)CC2)cc1` (centres undefined): 50.3 µM and > 100 µM (inactive).
The matching figures for `Cn1nc(C(=O)Nc2cccc(S(=O)(=O)N3CCCCC3)c2)c2ccccc2c1=O`: > 100 µM and > 100 µM (inactive).
Regarding `CC(=O)N1CCN(c2cc(N3CCCC3)c(F)cc2[N+](=O)[O-])CC1`, the half-maximal activity concentration (AC50) in test [1] was > 100 µM; in test [2] it was > 100 µM (inactive).
Take `Cc1ccc(Cl)cc1N1CCN(C(=O)c2ccc3nc[nH]c3c2)CC1`: the figures for the AC50 in test [1] and in test [2] were > 100 µM and > 100 µM (inactive), respectively.
`Clc1ccc2nc(CN3CCCc4ccccc43)cn2c1`: the results for the concentration at half-maximal activity (AC50) in test [1] and in test [2] were 36.1 µM and > 100 µM (inactive), respectively.
With `COc1cccc(N2CCN(c3ccc(S(=O)(=O)N4CCN(C)CC4)cc3[N+](=O)[O-])CC2)c1`, the AC50 in test [1] was > 100 µM; in test [2] it was > 100 µM (inactive).
Consider `CCOC(=O)c1nc(C)sc1-c1ccnn1S(=O)(=O)c1cccc(Cl)c1`, for which the results for the AC50 in test [1] and in test [2] were 52.2 µM and > 100 µM (inactive), respectively.
Turning to `Cc1ccsc1C(=O)C1CCCN(Cc2cc(F)ccc2-n2cccn2)C1` (centres undefined), the AC50 is > 100 µM in test [1] and > 100 µM (inactive) in test [2].
The corresponding values for `CN(CCOc1ccccc1)C(=O)c1ccc(OC2CCN(C(=O)C3CC3)CC2)cc1` are > 100 µM and > 100 µM (inactive).
The corresponding values for `CCc1ccc(C(=O)Nc2cccnc2Oc2ccc(Cl)cc2)cc1` are > 100 µM and > 100 µM (inactive).
For the molecule `COc1ccc(-c2nc(NC(C)=O)sc2-c2ccccc2)cc1`, the concentration at half-maximal activity (AC50) is > 100 µM in test [1] and > 100 µM (inactive) in test [2].
Turning to `Cc1cc(NC(=O)CN2CCN(c3cccc(Cl)c3)CC2)no1`, the AC50 was 29.5 µM in test [1] and > 100 µM (inactive) in test [2].
Regarding `Cc1cc(C)cc(NC(=O)c2cccc(NC(=O)c3ccco3)c2)c1`, the half-maximal activity concentration (AC50) in test [1] was > 100 µM; in test [2] it was > 100 µM (inactive).
The corresponding values for `CCCCNc1ccc2c(c1)OC[C@@H](Cc1ccccc1)NS2(=O)=O` are 44.4 µM and > 100 µM (inactive).
The corresponding values for `COc1ccc(CCCc2nc3ccccc3[nH]2)cc1` are > 100 µM and > 100 µM (inactive).
The matching figures for `O=c1[nH]c(C2CCN(S(=O)(=O)c3ccc4c(c3)OCCO4)CC2)nc2c1nnn2Cc1ccccc1F`: > 100 µM and > 100 µM (inactive).
Take `Cc1sc2ncnc(N3CCCC(C)C3)c2c1C` (centres undefined): the values for the AC50 in test [1] and in test [2] were > 100 µM and > 100 µM (inactive), respectively.
On to `O=C1NC(CCc2ccccc2)C(=O)N1Cc1cccc2ccccc12` (centres undefined), for which the half-maximal activity concentration (AC50) in test [1] was > 100 µM; in test [2], > 100 µM (inactive).
Regarding `O=S(=O)(c1ccccc1)N1CC[C@@H]2[C@H](CO)Nc3ccc(Br)cc3[C@@H]21`, the AC50 was > 100 µM in test [1] and > 100 µM (inactive) in test [2].
The matching figures for `O=C(Cc1c(Cl)cccc1Cl)Nc1cccc(S(=O)(=O)N2CCOCC2)c1`: 48.6 µM and > 100 µM (inactive).
Regarding `CC1CCN(c2ccc3nnc(CCC(=O)Nc4cccc(F)c4)n3n2)CC1`, the AC50 in test [1] was > 100 µM.
Regarding `O=C(CC1C(=O)NCCN1CC1CCCCC1)NCc1ccc(F)cc1F` (centres undefined), in test [1], the concentration at half-maximal activity (AC50) was > 100 µM.
On to `Cc1cccc(OCCC(=O)Nc2ccc(F)c(F)c2)c1`, for which the AC50 in test [1] was > 100 µM.

The record behind these values is PubChem BioAssay AID977624 (Broad Institute, 2014).
